Results as given in patent publication US6652890B2, “Tea catechins as cancer specific proliferation inhibitors” (Purdue Research Foundation, priority 1999, dated 2003).
Where “and” joins values, the source holds several entries; their conditions need not be identical. Equal values may be shown once. Read-outs that look alike come from different tables or passages of the source.

How the values were obtained:
Type in all cases: cell-based
[1] = molecular target: T1, tNOX activity of intact 4T1 mouse mammary cells (Mus musculus, UniProt Q8R0Z2); assay: Inhibition of tNOX (NADH oxidase) activity of intact 4T1 cells
T1 construct: endogenous in cells; host or cells: 4T1 mouse mammary carcinoma cells (intact)
T1 sequence (Q8R0Z2 1-598): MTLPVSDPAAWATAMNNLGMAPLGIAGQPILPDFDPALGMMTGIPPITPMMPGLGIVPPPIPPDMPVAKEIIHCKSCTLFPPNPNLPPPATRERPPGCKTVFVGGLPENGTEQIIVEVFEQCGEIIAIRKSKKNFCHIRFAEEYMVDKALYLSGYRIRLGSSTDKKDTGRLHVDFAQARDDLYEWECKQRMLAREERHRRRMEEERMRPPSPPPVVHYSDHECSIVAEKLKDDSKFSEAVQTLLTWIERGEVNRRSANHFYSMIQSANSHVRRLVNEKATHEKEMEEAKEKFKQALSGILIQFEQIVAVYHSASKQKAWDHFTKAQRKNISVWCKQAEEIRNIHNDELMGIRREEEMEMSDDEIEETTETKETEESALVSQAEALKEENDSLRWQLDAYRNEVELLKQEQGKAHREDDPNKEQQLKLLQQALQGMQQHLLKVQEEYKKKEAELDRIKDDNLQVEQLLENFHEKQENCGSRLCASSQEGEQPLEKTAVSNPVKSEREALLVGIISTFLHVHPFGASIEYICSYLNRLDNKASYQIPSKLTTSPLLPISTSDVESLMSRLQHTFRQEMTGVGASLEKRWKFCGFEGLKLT
Experimental: (§1) A mouse mammary tumor subpopulation line 4T1 arising from a BALB/cf C3H mouse was grown in DME-10, Dulbecco's modified Eagle's medium supplemented with 5% fetal calf serum, 5% newborn calf serum, 1 mM mixed non-essential amino acids, 2 mM L-glutamine, penicillin (100 units/ml), and streptomycin (100 μg/ml) (Miller et al., 1987, Brit. J. Can. 56:561-569 and Miller et al., 1990, Invasion Metastasis 10:101-112).
(§2) NADH oxidase activity was determined as the disappearance of NADH measured at 340 nm in a reaction mixture containing 25 mM Tris-Mes buffer (pH 7.2), 1 mM KCN, and 150 μM NADH at 37° C. Activity was measured using a Hitachi U3210 spectrophotometer with stirring and continuous recording over two intervals of 5 min each. A millimolar extinction coefficient of 6.22 was used to determine specific activity.
(§3) NADH oxidase activity was determined as the disappearance of NADH measured at 340 nm in a reaction mixture containing 25 mM Tris-Mes buffer (pH 7.2), 1 mM KCN, and 150 μM NADH at 37° C. Activity was measured at 340 nm with reference at 430 nm using an SLM Aminco DW-2000 spectrophotometer (Milton Roy, Rochester, N.Y.) in the dual beam mode of operation with stirring and continuous recording over two intervals of 5 min each. A millimolar extinction coefficient of 6.22 was used to determine specific activity.

CNOX = molecular target: T2, CNOX (Mus musculus, UniProt Q8BHR2); assay: CNOX activity of intact 4T1 cells; details: not effective up to and including this concentration
T2 construct: endogenous in cells; host or cells: 4T1 mouse mammary carcinoma cells (intact)
T2 sequence (Q8BHR2 1-643): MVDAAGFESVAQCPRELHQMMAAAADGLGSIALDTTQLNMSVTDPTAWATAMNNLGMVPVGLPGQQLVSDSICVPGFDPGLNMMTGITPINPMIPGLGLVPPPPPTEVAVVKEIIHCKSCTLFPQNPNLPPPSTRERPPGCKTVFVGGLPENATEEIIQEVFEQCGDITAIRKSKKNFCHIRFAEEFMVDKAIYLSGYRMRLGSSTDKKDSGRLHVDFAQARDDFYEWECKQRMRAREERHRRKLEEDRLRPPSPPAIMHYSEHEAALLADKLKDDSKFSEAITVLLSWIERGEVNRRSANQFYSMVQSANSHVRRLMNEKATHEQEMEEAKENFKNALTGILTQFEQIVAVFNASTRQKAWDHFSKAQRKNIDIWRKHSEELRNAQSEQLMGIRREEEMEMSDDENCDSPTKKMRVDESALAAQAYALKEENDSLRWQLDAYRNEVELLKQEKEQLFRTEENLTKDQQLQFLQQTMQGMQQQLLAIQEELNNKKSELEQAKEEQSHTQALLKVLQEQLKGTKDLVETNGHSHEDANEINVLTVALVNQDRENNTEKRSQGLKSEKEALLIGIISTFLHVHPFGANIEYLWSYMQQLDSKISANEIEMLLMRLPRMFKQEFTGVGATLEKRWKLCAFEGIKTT
Experimental: as §1, §3

[2] = molecular target: T3, tNOX activity of HeLa S cells (Homo sapiens, UniProt Q16206); assay: NADH oxidase of intact HeLa (HeLa S) cells
T3 construct: Response of the NADH oxidase of HeLa S cells to (−)-epigallocatechin gallate (EGCg) alone; endogenous in cells; methods say ATCC CCL2
T3 sequence (Q16206 1-610): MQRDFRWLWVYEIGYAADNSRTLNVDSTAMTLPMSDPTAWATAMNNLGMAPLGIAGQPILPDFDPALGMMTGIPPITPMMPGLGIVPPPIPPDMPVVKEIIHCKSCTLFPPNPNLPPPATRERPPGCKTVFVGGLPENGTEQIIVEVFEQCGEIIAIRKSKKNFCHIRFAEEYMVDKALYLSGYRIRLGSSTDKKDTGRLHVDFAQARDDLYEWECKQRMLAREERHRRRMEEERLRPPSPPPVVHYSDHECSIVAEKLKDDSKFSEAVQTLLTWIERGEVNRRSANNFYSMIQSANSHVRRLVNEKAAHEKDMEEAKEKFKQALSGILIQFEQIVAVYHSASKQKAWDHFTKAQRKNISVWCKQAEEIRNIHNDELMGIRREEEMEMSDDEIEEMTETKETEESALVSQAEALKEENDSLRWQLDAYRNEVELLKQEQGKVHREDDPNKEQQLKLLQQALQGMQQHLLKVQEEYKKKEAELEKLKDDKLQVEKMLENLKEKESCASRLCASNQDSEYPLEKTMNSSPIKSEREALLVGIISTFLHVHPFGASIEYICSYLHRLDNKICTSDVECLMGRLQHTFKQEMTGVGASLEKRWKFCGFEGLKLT
Experimental: HeLa (ATCC CCL2) cells were grown in 150 cm^2 flasks in Minimal Essential Medium (Gibco), pH 7.4, at 37° C. with 10% bovine calf serum (heat-inactivated), plus 50 mg/l gentamicin sulfate (Sigma). Cells were trypsinized with Sigma IX trypsin for 1 to 2 min and harvested by scraping and taken up in 140 mM NaCl, 5 mM KCl, 0.7 mM Na2HPO4 and 25 mM Tris, pH 7.4, to a final cell concentration of 0.1 g wet weight (gww) per ml.
as §2

(−) - epigallocatechin gallate [EGCg]
tNOX inhibition by EGCg, EC>90 ([1]; EC concentration 0 M): 10^−7 M
tNOX inhibition by EGCg, EC>90 ([1]; EC concentration 10^−4 M): 10^−8 M
tNOX inhibition by EGCg, EC>90 ([1]; EC concentration 10^−6 M): 10^−8 M
tNOX inhibition by EGCg, EC>90 ([1]; EC concentration 10^−8 M): 10^−7 M
EC50 ([1]; in the presence of 10^−4 M EC, read-out: EC50 for inhibition of the drug-responsive component of the plasma membrane NADH oxidase): 2 nM
EC50 ([1]; read-out: tNOX inhibition by EGCg, EC50, EC concentration 0 M): ~10 nM and 10 nM
EC50 ([1]; read-out: tNOX inhibition by EGCg, EC50, EC concentration 10^−4 M): 0.5 nM
EC50 ([1]; read-out: tNOX inhibition by EGCg, EC50, EC concentration 10^−6 M): 1 nM
EC50 ([1]; read-out: tNOX inhibition by EGCg, EC50, EC concentration 10^−8 M): 10 nM
Enhancement of the efficacy of EGCg inhibition ([1]; with both 10^−6 and 10^−4 M EC): ≥ 10 fold
Concentration effective in inhibiting the residual CNOX activity (CNOX): > 10^−6 M
EGCg concentration at which NOX activity was stimulated [2]: ≥ 10^−5 M
EGCg concentration for maximal inhibition of tNOX activity ([2]; EGCg alone, FIG. 12): 0.1 µM
